From patent US7863328B2, “Phenylbenzoic acid derivatives, processes for the preparation thereof, pharmaceutical compositions comprising them, and therapeutic uses thereof” (Merck Patent GmbH, priority 2005, dated 2011) come the findings set out here.

The test addresses T1, chimeric protein PPARγ-Gal4 (Homo sapiens, UniProt P37231).
T1 construct: expressed in transfected cells; host or cells: CV-1 cells (monkey kidney cells)
In words: PPARγ-Gal4 transactivation test (luciferase reporter) in cotransfected CV-1 cells. Format: cell-based. Here is the method: The measurement of the PPAR activation was performed according to a technique described by Lehmann et al. (J. Biol. Chem., 270, (1995), 12953-12956).
CV-1 cells (monkey kidney cells) are cotransfected with an expression vector for the chimeric protein PPARγ-Gal4 and with a “reporter” plasmid that allows expression of the luciferase gene placed under the control of a promoter comprising Gal4 response elements.
The cells are seeded in 96-well microplates and cotransfected using a commercial reagent with the reporter plasmid (pG5-tk-pGL3) and the expression vector for the chimeric protein (PPARγ-Gal4). After incubation for 4 hours, whole culture medium (comprising 10% foetal calf serum) is added to the wells. After 24 hours, the medium is removed and replaced with whole medium comprising the test products. The products are left in contact with the cells for 18 hours. The cells are then lysed and the luciferase activity is measured using a luminometer. A PPARγ activation factor can then be calculated by means of the activation of the expression of the reporter gene induced by the product (relative to the control cells that have received no product).
In the absence of the PPARγ ligand binding domain (vector expressing Gal4 alone), the luciferase activity measured in the presence of this product is zero.
The following transactivation result was obtained with a concentration of 30 μM on PPARγ.
The transactivation test using the expression of a chimeric protein Gal-4-PPARγ makes it possible to determine also whether an agonist functions as a “full” agonist or as a “partial” agonist in this system.
An agonist is “partial” in this system if it induces a weaker response, i.e. it has lower efficacy, than rosiglitazone, which is a “full” agonist. In concrete terms, in our system, the transactivation obtained at the plateau with a partial agonist will be between 20% and 50% of the maximum response (efficacy) at the plateau of rosiglitazone.
(Reporter assays use an easily measured gene product as a stand-in for the process of interest.)

T1 sequence (P37231 238-503 limits assumed, change not shown): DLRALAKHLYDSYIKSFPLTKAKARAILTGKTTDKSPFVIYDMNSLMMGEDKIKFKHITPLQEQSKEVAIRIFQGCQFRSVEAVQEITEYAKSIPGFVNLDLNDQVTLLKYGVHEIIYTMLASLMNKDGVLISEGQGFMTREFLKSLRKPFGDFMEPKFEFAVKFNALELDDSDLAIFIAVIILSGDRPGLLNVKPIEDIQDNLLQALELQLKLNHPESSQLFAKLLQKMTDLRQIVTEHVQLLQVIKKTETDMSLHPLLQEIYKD
T1 sequence (P04386 1-147 partner limits assumed): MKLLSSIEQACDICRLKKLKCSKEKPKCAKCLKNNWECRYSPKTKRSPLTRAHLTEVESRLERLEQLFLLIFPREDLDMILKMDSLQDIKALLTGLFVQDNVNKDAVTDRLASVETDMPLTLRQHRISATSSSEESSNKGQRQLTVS

With `Cc1oc(-c2ccccc2)nc1COc1cc2c(cc1-c1ccc(C(=O)O)cc1)CCC2=O` [Example 4, 4-[6-(5-Methyl-2-phenyloxazol-4-ylmethoxy)-1-oxoindan-5-yl]-benzoic acid], under “Gal4-PPARγ transactivation, plateau”, the “Concentration to reach the maximum stimulation of the PPARγ chimeric protein” value was 6.25 µM. Besides, the Emax (transactivation at the plateau as % of the maximum response (efficacy) of rosiglitazone, read-out: Maximum stimulation of the PPARγ chimeric protein obtained with rosiglitazone) amounted to 23%.
As for `Cc1cc(COc2cc3c(cc2-c2ccc(C(=O)O)cc2)CCC3=O)no1` [Example 29, 4-[6-(5-methylisoxazol-3-ylmethoxy)-1-oxoindan-5-yl]benzoic acid], the “Activation factor of the chimeric protein PPARγ-Gal4” value (concentration 30 μM, 18 hours contact, relative to control cells that have received no product (control = 1)) is on record as 16.
